Experiments:
[1] = biological target: T1, ABCC2 (Homo sapiens, UniProt Q92887); assay: ATPase profile (ATP acyl phosphate probe); format: binding; details: ABCC2, SEQ ID NO: 8, ATP BS
T1 construct: to get the native cell lysate; host or cells: A375 cell lysate

[2] = biological target: T2, ABCE1 (Homo sapiens, UniProt P61221); assay: ATPase profile (ATP acyl phosphate probe); format: binding; details: ABCE1, SEQ ID NO: 15, ATP BS
T2 construct: to get the native cell lysate; host or cells: A375 cell lysate

[3] = biological target: T3, ACTR2 (Homo sapiens, UniProt P61160); assay: ATPase profile (ATP acyl phosphate probe); format: binding
T3 construct: to get the native cell lysate; host or cells: A375 cell lysate

[4] = biological target: T4, AK1 (Homo sapiens, UniProt P00568); assay: ATPase profile (ATP acyl phosphate probe); format: binding
T4 construct: to get the native cell lysate; host or cells: A375 cell lysate

[5] = biological target: T5, ALDH18A1 (Homo sapiens, UniProt P54886); assay: ATPase profile (ATP acyl phosphate probe); format: binding; details: ALDH18A1, SEQ ID NO: 39, ATP BS
T5 construct: to get the native cell lysate; host or cells: A375 cell lysate

[6] = biological target: T6, APRT (Homo sapiens, UniProt P07741); assay: ATPase profile (ATP acyl phosphate probe); format: binding; details: SEQ ID NO: 40, ATP BS
T6 construct: to get the native cell lysate; host or cells: A375 cell lysate

[7] = biological target: T7, ASS1 (Homo sapiens, UniProt P00966); assay: ATPase profile (ATP acyl phosphate probe); format: binding; details: ASS1, SEQ ID NO: 43, ATP BS
T7 construct: to get the native cell lysate; host or cells: A375 cell lysate

[8] = biological target: T8, CCT7 (Homo sapiens, UniProt Q99832); assay: ATPase profile (ATP acyl phosphate probe); format: binding; details: CCT7, SEQ ID NO: 55, ATP BS
T8 construct: host or cells: A375 cell lysate

[9] = biological target: T9, CPS1 (Homo sapiens, UniProt P31327); assay: ATPase profile (ATP acyl phosphate probe); format: binding; details: CPS1, SEQ ID NO: 64, labeling site Other
T9 construct: endogenous in cells; host or cells: A375 cell lysate

[10] = biological target: T10, HSP90B2P, TRA1 (Homo sapiens, UniProt P14625); assay: ATPase profile (ATP acyl phosphate probe); format: binding; details: TRA1, SEQ ID NO: 99, ATP BS, read-out: Inhibition (%) by 1 μM Z36-MP5
T10 construct: to get the native cell lysate; endogenous in cells; host or cells: A375

[11] = biological target: T11, HSPA5 (Homo sapiens, UniProt P11021); assay: ATPase profile (ATP acyl phosphate probe); format: binding
T11 construct: to get the native cell lysate; endogenous in cells; host or cells: A375

[12] = biological target: T12, KARS (Homo sapiens, UniProt Q15046); assay: ATPase profile (ATP acyl phosphate probe); format: binding; details: SEQ ID NO: 112, ATP BS
T12 construct: to get the native cell lysate; endogenous in cells; host or cells: A375

[13] = biological target: T13, NUDT2 (Homo sapiens, UniProt P50583); assay: ATPase profile (ATP acyl phosphate probe); format: binding
T13 construct: to get the native cell lysate; endogenous in cells; host or cells: A375

[14] = biological target: T14, OLA1 (Homo sapiens, UniProt Q9NTK5); assay: ATPase profile (ATP acyl phosphate probe); format: binding; details: OLA1, SEQ ID NO: 150, ATP BS
T14 construct: to get the native cell lysate; endogenous in cells; host or cells: A375

[15] = biological target: T15, PAICS (Homo sapiens, UniProt P22234); assay: ATPase profile (ATP acyl phosphate probe); format: binding; details: SEQ ID NO: 151, ATP BS
T15 construct: to get the native cell lysate; endogenous in cells; host or cells: A375

[16] = biological target: T16, PC (Homo sapiens, UniProt P11498); assay: ATPase profile (ATP acyl phosphate probe); format: binding; details: SEQ ID NO: 152, ATP BS
T16 construct: to get the native cell lysate; endogenous in cells; host or cells: A375

[17] = biological target: T17, PCCA (Homo sapiens, UniProt P05165); assay: ATPase profile (ATP acyl phosphate probe); format: binding
T17 construct: to get the native cell lysate; endogenous in cells; host or cells: A375

[18] = biological target: T18, PFKM (Homo sapiens, UniProt P08237); assay: ATPase profile (ATP acyl phosphate probe); format: binding; details: SEQ ID NO: 159, ATP BS
T18 construct: to get the native cell lysate; endogenous in cells; host or cells: A375 cell lysate

[19] = biological target: T19, PPCS (Homo sapiens, UniProt Q9HAB8); assay: ATPase profile (ATP acyl phosphate probe); format: binding
T19 construct: to get the native cell lysate; endogenous in cells; host or cells: A375 cell lysate

[20] = biological target: T20, PSMC6 (Homo sapiens, UniProt P62333); assay: ATPase profile (ATP acyl phosphate probe); format: binding; details: PSMC6, SEQ ID NO: 178, ATP BS
T20 construct: to get the native cell lysate; endogenous in cells; host or cells: A375 cell lysate

[21] = biological target: T21, RFC4 (Homo sapiens, UniProt P35249); assay: ATPase profile (ATP acyl phosphate probe); format: binding; details: RFC4, SEQ ID NO: 185, ATP BS
T21 construct: to get the native cell lysate; endogenous in cells; host or cells: A375 cell lysate

[22] = biological target: T22, RUVBL2 (Homo sapiens, UniProt Q9Y230); assay: ATPase profile (ATP acyl phosphate probe); format: binding; details: RUVBL2, SEQ ID NO: 189, ATP BS
T22 construct: to get the native cell lysate; endogenous in cells; host or cells: A375 cell lysate

[23] = biological target: SARS (Homo sapiens, UniProt P49591); format: binding; details: SEQ ID NO: 190, ATP BS
[24] = biological target: T23, SPG7 (Homo sapiens, UniProt Q9UQ90); assay: ATPase profile (ATP acyl phosphate probe); format: binding; details: SPG7, SEQ ID NO: 197, ATP BS
T23 construct: to get the native cell lysate; endogenous in cells; host or cells: A375 cell lysate

[25] = biological target: T24, TCP1 (Homo sapiens, UniProt P17987); assay: ATPase profile (ATP acyl phosphate probe); format: binding; details: TCP1, SEQ ID NO: 200, ATP BS
T24 construct: to get the native cell lysate; endogenous in cells; host or cells: A375 cell lysate

[26] = biological target: T25, TRMU (Homo sapiens, UniProt O75648); assay: ATPase profile (ATP acyl phosphate probe); format: binding
T25 construct: to get the native cell lysate; endogenous in cells; host or cells: A375 cell lysate

[27] = biological target: T26, TTL (Homo sapiens, UniProt Q8NG68); assay: ATPase profile (ATP acyl phosphate probe); format: binding
T26 construct: to get the native cell lysate; endogenous in cells; host or cells: A375 cell lysate

[28] = tested on: B16F10 melanoma graft; assay: Syngeneic melanoma graft mouse model
Procedure: To test Z36-MP5 function in syngeneic mouse model, B16F10 cells (1.5×105) were mixed with BD matrigel (Matrix Growth Factor Reduced) (BD, 354230) in 100 μl PBS, and then mouse subcutaneous injection and tumor graft monitor were performed as described above. Except that vehicle [5% (w/v) Kolliphor HS 15 (Sigma)] in normal saline or formulated 30 mg/kg Z36-MP5 was administered with i.p. injection once a day starting at day 6, together with i.p. injection of control IgG antibodies (10 mg/kg) or anti-PD-1 (RMP1-14, BioXCell, 10 mg/kg) on day 6, 9, 12, 15 and 18. The mice were euthanized after indicated days or when the allowable endpoint size (1 cm^3) was reached.
Tumors were minced with scissors, and then digested with the digestion buffer (RPMI 1640 medium, 5% FBS, 1% penicillin-streptomycin, 25 mM HEPES, and 300 U collagenase (Sigma C0130)) on a shaker at 37° C. for 2 hours. Single cells were prepared through a 70 m cell strainer. Erythrocytes were removed by incubation in red blood cell lysis buffer (R7757, Sigma) at room temperature for 5 min. The cells were prepared in PBS (with concentration of ˜2×10^7) for studies.
The single-cell suspension were fixed with 2% paraformaldehyde solution (J19943K2, Thermo Scientific). And then the cells were stained with the follow antibodies: anti-mouse CD45 APC (104, BD pharmingen, 561875), anti-mouse CD3e PE (145-2C11, BD pharmingen, 553063), anti-mouse CD4 FITC (RM4-5, BD pharmingen, 553046), anti-mouse CD4 PE/Cy7 (GK1.5, BioLegend, 100421), anti-mouse CD8 FITC (53-6.7, BD pharmingen, 553031), anti-mouse CD8a APC/Cy7 (53-6.7, BioLegend 100713), anti-mouse IFN-γ PE (XMG1.2, eBioscience, 12731181), anti-mouse CD69 PE (H1.2F3, Biolegend, 104508), anti-mouse CD25 Alexa Fluor 488 (PC61.5, eBioscience, 53025182), anti-mouse CD107a-V450 (1D4B, BD, 560648), anti-human/mouse granzyme B FITC (GB 11, BioLegend, 515403). The regulatory T cells in TILs were stained with the Mouse Regulatory T Cell Staining kit #1 (88-8111, ThermoFisher Scienctific), with antibodies of anti-mouse CD4 FITC (RM4-5), anti-mouse CD25 APC (PC61.5) anti-mouse Foxp3 PE (FJK-16s). BD LSRII was used for data acquisition and FlowJo was used for data analysis.

[29] = Z36-MP5 30 mg/kg combined with anti-PD-1 10 mg/kg, B16F10 graft

T13 sequence (P50583 whole entry): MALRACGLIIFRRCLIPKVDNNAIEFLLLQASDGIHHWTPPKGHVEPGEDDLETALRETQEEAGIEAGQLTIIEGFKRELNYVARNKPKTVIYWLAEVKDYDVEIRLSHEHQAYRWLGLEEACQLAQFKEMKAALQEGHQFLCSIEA
T19 sequence (Q9HAB8 whole entry): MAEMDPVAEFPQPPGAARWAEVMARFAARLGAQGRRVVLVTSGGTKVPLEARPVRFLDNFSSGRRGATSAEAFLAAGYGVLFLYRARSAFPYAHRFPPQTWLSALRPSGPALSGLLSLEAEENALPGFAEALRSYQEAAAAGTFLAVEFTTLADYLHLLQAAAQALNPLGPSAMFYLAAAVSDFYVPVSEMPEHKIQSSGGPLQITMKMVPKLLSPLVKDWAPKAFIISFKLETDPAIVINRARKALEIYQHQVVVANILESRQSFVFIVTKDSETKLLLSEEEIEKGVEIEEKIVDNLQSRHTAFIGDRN
T4 sequence (P00568 whole entry): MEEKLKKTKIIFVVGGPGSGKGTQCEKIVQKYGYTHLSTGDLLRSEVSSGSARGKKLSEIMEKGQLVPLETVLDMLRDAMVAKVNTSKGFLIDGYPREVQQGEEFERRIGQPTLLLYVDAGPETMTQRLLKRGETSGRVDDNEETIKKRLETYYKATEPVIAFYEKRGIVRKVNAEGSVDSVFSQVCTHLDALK
T25 sequence (O75648 whole entry): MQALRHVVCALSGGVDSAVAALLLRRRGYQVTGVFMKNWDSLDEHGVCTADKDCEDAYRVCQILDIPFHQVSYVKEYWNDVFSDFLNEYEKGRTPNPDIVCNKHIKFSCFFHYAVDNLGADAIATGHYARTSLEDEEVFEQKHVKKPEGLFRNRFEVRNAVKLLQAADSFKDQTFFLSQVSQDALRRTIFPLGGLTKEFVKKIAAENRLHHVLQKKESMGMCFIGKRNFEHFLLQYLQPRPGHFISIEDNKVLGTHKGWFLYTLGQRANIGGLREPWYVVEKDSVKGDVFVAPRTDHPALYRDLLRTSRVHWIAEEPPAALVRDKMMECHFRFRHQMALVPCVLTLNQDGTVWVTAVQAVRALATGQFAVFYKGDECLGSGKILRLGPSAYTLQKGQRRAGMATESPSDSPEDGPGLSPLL
T11 sequence (P11021 19-654): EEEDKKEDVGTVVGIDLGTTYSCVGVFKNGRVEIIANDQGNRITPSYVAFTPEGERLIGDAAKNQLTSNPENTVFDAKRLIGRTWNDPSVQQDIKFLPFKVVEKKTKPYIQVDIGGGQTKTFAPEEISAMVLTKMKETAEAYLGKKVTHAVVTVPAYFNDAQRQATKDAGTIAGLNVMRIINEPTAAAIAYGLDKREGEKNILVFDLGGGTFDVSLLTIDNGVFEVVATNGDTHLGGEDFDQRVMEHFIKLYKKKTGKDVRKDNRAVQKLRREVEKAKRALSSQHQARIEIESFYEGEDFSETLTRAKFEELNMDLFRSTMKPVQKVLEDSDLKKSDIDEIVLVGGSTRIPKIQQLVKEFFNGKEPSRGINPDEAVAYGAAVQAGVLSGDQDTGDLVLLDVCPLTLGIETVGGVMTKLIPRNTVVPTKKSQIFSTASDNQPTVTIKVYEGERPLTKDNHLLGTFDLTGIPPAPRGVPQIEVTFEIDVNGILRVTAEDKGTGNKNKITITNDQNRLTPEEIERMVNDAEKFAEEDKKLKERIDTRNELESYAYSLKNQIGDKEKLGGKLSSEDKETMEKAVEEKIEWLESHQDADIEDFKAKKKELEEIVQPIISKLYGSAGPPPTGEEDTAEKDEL
T26 sequence (Q8NG68 whole entry): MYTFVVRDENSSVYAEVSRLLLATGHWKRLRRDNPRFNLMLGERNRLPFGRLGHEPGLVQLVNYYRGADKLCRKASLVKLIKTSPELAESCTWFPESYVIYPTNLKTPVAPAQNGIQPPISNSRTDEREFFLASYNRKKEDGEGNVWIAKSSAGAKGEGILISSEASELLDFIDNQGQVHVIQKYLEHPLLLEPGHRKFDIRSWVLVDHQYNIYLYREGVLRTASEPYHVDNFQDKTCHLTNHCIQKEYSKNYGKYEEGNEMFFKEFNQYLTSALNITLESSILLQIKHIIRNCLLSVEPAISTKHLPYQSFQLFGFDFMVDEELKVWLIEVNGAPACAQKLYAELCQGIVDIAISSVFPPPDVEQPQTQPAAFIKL
T17 sequence (P05165 53-728): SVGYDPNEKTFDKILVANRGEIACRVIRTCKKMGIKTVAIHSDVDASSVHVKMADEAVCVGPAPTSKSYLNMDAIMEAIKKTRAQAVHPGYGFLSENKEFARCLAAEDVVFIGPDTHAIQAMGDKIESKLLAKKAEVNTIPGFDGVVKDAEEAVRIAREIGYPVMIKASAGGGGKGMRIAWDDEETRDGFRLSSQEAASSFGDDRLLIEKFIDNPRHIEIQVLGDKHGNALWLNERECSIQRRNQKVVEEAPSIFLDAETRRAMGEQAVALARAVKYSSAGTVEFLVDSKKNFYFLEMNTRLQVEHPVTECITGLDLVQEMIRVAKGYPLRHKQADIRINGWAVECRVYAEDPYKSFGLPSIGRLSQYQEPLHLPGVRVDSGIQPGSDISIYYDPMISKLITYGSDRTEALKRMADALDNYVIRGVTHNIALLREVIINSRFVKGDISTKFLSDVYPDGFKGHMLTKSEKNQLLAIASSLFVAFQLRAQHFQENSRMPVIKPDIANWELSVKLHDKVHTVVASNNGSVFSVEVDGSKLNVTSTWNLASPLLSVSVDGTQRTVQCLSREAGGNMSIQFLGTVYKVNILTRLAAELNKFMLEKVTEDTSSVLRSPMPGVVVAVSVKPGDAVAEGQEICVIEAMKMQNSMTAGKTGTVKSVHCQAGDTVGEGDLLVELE
T17 sequence (P05166 29-539 partner): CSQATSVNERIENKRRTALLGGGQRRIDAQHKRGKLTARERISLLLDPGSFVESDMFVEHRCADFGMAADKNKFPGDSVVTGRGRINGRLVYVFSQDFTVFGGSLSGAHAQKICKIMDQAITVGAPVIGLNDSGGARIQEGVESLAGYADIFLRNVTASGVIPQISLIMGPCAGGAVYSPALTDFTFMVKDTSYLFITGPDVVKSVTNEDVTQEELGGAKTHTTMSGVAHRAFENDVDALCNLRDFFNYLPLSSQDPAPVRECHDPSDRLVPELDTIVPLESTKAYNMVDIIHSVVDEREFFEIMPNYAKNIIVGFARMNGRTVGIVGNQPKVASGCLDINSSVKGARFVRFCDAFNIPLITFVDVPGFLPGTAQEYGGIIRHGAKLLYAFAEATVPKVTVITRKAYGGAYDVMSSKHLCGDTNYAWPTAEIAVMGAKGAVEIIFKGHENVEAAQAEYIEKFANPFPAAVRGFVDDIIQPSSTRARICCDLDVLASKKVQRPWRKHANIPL
T18 sequence (P08237 whole entry): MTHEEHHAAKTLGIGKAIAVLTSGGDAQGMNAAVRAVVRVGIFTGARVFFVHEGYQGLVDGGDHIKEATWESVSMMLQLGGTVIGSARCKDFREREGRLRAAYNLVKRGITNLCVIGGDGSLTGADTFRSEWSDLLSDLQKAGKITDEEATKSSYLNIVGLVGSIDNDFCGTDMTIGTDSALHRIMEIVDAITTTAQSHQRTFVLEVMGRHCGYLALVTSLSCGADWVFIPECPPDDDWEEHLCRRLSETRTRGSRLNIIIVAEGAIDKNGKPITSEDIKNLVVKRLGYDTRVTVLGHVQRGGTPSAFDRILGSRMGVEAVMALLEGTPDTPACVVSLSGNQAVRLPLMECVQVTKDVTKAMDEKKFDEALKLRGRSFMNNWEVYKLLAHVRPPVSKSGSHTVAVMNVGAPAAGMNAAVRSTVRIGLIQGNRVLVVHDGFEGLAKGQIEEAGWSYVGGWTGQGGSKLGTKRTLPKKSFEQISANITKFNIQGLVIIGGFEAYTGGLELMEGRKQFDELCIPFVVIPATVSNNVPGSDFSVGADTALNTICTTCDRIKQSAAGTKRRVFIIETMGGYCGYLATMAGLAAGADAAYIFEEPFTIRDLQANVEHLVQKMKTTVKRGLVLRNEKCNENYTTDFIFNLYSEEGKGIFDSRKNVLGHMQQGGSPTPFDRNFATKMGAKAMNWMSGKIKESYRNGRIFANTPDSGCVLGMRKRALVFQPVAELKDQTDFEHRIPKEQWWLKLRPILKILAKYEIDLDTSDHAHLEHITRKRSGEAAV
T22 sequence (Q9Y230 2-463 limits assumed): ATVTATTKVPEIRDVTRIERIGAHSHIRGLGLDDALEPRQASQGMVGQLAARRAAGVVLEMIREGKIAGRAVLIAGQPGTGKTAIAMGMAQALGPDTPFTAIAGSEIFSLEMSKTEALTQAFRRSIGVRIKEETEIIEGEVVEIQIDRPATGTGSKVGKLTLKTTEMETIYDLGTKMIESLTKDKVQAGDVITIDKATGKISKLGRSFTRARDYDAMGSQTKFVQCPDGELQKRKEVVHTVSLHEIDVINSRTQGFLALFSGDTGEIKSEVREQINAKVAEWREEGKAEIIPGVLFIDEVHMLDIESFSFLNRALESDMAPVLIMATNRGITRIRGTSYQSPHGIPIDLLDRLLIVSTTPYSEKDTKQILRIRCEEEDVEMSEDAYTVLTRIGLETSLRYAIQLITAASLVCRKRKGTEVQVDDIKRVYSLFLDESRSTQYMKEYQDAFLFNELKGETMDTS
T22 sequence (Q9Y265 whole entry partner): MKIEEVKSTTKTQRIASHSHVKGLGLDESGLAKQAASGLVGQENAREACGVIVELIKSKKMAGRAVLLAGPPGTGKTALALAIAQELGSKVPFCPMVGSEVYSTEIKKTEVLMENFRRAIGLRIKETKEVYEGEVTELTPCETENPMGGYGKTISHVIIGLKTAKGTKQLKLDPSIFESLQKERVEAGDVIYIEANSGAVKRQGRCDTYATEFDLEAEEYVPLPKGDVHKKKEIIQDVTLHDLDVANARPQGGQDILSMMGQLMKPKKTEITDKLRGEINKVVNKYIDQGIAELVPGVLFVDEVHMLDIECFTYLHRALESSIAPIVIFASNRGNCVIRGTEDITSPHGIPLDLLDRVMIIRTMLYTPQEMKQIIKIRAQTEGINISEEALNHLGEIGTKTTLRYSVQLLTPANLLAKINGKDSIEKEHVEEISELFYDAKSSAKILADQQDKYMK

Compound: Cn1c(=O)[nH]c2ccc(-c3cccc(C(=O)NC4CCn5ccnc5C4)c3)cc21 (stereo not shown) [Z36-MP5, 3-(3-methyl-2-oxo-2,3-dihydro-1H-benzo[d]imidazol-5-yl)-N-(5,6,7,8-tetrahydroimidazo[1,2-a]pyridin-7-yl)benzamide]
- Inhibition (%) by 1 μM Z36-MP5 [1]: 4.09%
- Inhibition (%) by 1 μM Z36-MP5 [2]: −4.76%
- Inhibition (%) by 1 μM Z36-MP5 ([3]; ACTR2, SEQ ID NO: 25, ATP BS): −16.82%
- Inhibition (%) by 1 μM Z36-MP5 ([3]; ACTR2, SEQ ID NO: 26, ATP BS): −2.20%
- Inhibition (%) by 1 μM Z36-MP5 ([4]; AK1, SEQ ID NO: 31, ATP BS): −7.19%
- Inhibition (%) by 1 μM Z36-MP5 ([4]; AK1, SEQ ID NO: 32, ATP BS): −9.87%
- Inhibition (%) by 1 μM Z36-MP5 [5]: −6.95%
- Inhibition (%) by 1 μM Z36-MP5 [6]: 0.39%
- Inhibition (%) by 1 μM Z36-MP5 [7]: 0.53%
- Inhibition (%) by 1 μM Z36-MP5 [8]: 10.91%
- Inhibition (%) by 1 μM Z36-MP5 [9]: 1.16%
- inhibition at 1 µM [10]: -6.72%
- Inhibition (%) by 1 μM Z36-MP5 ([11]; HSPA5, SEQ ID NO: 104, ATP BS): −16.08%
- Inhibition (%) by 1 μM Z36-MP5 ([11]; HSPA5, SEQ ID NO: 105, ATP BS): −7.84%
- Inhibition (%) by 1 μM Z36-MP5 [12]: 2.22%
- Inhibition (%) by 1 μM Z36-MP5 ([13]; NUDT2, SEQ ID NO: 145, ATP BS): 19.18%
- Inhibition (%) by 1 μM Z36-MP5 ([13]; NUDT2, SEQ ID NO: 146, ATP BS): 11.64%
- Inhibition (%) by 1 μM Z36-MP5 [14]: −0.68%
- Inhibition (%) by 1 μM Z36-MP5 [15]: 19.51%
- Inhibition (%) by 1 μM Z36-MP5 [16]: −15.19%
- Inhibition (%) by 1 μM Z36-MP5 ([17]; SEQ ID NO: 153, ATP BS): −5.50%
- Inhibition (%) by 1 μM Z36-MP5 ([17]; SEQ ID NO: 154, ATP BS): −10.70%
- Inhibition (%) by 1 μM Z36-MP5 [18]: −8.93%
- Inhibition (%) by 1 μM Z36-MP5 ([19]; SEQ ID NO: 165, ATP BS): −7.44%
- Inhibition (%) by 1 μM Z36-MP5 ([19]; SEQ ID NO: 166, ATP BS): −9.61%
- Inhibition (%) by 1 μM Z36-MP5 [20]: −0.83%
- Inhibition (%) by 1 μM Z36-MP5 [21]: −6.66%
- Inhibition (%) by 1 μM Z36-MP5 [22]: −0.97%
- Inhibition (%) by 1 μM Z36-MP5 [23]: 3.57%
- Inhibition (%) by 1 μM Z36-MP5 [24]: 0.12%
- Inhibition (%) by 1 μM Z36-MP5 [25]: 6.76%
- Inhibition (%) by 1 μM Z36-MP5 ([26]; SEQ ID NO: 211, ATP BS): −13.98%
- Inhibition (%) by 1 μM Z36-MP5 ([26]; SEQ ID NO: 212, ATP BS): −2.57%
- Inhibition (%) by 1 μM Z36-MP5 ([27]; SEQ ID NO: 213, ATP BS): 10.59%
- Inhibition (%) by 1 μM Z36-MP5 ([27]; SEQ ID NO: 214, ATP BS): −14.46%
- mouse survival [28, 29]: extended mouse survival
- tumor growth [28, 29]: substantial inhibition
- GZMB expression and activation markers CD69, IFN-γ, CD25 and CD107 in tumor-infiltrating CD8+ T cells ([28]; Z36-MP5 alone): upregulation
- CD8+ T cell TILs ([28]; Z36-MP5 alone, graft melanomas): moderate increase
- GZMB expression and activation markers CD69, IFN-γ, CD25 and CD107 in tumor-infiltrating CD8+ T cells ([28]; Z36-MP5 combined with anti-PD-1): augmented
- CD8+ T cell TILs ([28]; Z36-MP5 combined with anti-PD-1, graft melanomas): augmented
- population of CD4+ T cell and Treg cells ([28]; individual or combinational treatments, graft melanomas): not changed significantly
- tumor growth or mouse survival ([28]; treatment alone, B16F10 graft): did not impact
